{
  "source": "paper PMC5668434",
  "about": "“Modulation of telomere protection by the PI3K/AKT pathway” (Nature Communications, 2017)",
  "key": {"[1]": {"tested_on": "TRF1 mRNA in CHA 9-3 lung cancer cells", "assay": "TRF1 mRNA by qPCR", "format": "cell-based, mouse", "conditions": "10 μM, 24 h"}, "PI3K-β (p110β/p85α)": {"target": "T1, PI3K-β (p110β/p85α) (Homo sapiens, UniProt P42338)", "T1 construct": "purchased Millipore #14-603", "T1 sequence (P42338 whole entry, canonical isoform)": "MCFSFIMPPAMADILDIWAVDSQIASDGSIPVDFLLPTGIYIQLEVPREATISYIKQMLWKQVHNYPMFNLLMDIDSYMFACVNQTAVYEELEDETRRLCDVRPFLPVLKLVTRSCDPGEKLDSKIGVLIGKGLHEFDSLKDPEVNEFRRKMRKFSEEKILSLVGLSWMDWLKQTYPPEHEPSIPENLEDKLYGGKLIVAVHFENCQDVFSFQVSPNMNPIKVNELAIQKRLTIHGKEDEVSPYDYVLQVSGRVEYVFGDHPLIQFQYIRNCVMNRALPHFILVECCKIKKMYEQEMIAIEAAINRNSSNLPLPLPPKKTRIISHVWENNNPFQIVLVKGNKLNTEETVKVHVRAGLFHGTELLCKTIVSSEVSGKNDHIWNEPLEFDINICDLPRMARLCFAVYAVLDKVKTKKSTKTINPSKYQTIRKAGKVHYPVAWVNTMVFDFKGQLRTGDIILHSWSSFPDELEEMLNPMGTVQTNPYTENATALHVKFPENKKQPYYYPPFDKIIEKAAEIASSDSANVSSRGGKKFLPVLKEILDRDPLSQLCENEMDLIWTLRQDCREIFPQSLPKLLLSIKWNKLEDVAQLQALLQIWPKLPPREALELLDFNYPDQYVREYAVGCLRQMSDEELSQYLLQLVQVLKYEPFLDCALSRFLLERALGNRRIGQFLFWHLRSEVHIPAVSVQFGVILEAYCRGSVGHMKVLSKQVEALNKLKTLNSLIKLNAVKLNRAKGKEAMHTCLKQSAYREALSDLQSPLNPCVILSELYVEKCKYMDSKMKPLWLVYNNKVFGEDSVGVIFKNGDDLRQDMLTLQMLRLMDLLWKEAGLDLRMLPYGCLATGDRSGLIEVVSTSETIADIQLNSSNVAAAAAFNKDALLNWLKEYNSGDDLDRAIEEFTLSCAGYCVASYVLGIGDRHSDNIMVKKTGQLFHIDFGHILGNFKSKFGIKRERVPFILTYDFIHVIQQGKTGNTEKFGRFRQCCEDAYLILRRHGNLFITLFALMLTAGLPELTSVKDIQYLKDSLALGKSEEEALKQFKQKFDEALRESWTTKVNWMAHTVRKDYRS", "T1 sequence (P27986 whole entry partner, canonical isoform)": "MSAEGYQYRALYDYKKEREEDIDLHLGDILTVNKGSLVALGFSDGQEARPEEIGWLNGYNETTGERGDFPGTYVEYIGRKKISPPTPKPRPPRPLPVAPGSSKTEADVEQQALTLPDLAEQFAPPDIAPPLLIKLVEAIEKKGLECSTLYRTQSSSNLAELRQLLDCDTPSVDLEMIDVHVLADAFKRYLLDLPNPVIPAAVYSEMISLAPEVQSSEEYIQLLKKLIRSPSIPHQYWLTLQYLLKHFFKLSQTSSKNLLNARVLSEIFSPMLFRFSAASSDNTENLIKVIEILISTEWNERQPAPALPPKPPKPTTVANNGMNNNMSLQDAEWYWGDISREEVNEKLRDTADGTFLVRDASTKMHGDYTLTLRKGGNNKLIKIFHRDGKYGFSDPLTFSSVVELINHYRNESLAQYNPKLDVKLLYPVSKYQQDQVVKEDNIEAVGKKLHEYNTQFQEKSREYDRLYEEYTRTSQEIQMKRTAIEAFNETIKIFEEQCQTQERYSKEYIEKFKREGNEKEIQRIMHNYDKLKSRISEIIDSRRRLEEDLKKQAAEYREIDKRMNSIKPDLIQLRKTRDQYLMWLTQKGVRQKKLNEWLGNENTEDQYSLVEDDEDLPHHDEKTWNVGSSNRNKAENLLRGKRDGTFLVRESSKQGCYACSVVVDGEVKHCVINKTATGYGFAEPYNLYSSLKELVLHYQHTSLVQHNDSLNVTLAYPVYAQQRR", "assay": "PI3K isoforms biochemical assay (HTRF), PI3K-β", "conditions": "read-out: PI3Kβ IC50", "procedure": "(§1) PI3Kα (p110α/p85α), PI3K-δ (p110δ/p85α), and PI3K-γ (p110γ) were purchased from Invitrogen (PV4789, PV 5274, and PV4787, respectively). PI3K-β (p110β/p85α) was obtained from Millipore (#14-603). The kinase activity was measured with the commercial PI3-kinase (human) HTRF™ assay available from Millipore (#33-017), following the manufacturer recommendations. The final enzyme concentration in the assay were 100 pM for PI3K-α and PI3K-δ, 500 pM for PI3K-β, and 4 nM for PI3K-γ. […] The enzyme was preincubated with the inhibitor and with 10 μM of PIP2 for 5 min. The enzymatic reaction was started by addition of ATP at 50 times the Km. The incubation was kept at 37 °C for 60 min. Stop solution and detection mix were added sequentially to the wells and plates were incubated 3 h in the dark at 25 °C. HTRF counts were measured in an EnVision reader (Perkin Elmer) using the recommended settings. Values were normalized against the control activity included for the enzyme (100% PI3 kinase activity, without compound). These values were plotted against the inhibitor concentration and were fit to a sigmoid dose-response curve by using Activity base software from IDBS."}, "PI3K-γ (p110γ)": {"target": "T2, PI3K-γ (p110γ) (Homo sapiens, UniProt P48736)", "T2 construct": "purchased Invitrogen PV4787", "T2 sequence (P48736 whole entry, canonical isoform)": "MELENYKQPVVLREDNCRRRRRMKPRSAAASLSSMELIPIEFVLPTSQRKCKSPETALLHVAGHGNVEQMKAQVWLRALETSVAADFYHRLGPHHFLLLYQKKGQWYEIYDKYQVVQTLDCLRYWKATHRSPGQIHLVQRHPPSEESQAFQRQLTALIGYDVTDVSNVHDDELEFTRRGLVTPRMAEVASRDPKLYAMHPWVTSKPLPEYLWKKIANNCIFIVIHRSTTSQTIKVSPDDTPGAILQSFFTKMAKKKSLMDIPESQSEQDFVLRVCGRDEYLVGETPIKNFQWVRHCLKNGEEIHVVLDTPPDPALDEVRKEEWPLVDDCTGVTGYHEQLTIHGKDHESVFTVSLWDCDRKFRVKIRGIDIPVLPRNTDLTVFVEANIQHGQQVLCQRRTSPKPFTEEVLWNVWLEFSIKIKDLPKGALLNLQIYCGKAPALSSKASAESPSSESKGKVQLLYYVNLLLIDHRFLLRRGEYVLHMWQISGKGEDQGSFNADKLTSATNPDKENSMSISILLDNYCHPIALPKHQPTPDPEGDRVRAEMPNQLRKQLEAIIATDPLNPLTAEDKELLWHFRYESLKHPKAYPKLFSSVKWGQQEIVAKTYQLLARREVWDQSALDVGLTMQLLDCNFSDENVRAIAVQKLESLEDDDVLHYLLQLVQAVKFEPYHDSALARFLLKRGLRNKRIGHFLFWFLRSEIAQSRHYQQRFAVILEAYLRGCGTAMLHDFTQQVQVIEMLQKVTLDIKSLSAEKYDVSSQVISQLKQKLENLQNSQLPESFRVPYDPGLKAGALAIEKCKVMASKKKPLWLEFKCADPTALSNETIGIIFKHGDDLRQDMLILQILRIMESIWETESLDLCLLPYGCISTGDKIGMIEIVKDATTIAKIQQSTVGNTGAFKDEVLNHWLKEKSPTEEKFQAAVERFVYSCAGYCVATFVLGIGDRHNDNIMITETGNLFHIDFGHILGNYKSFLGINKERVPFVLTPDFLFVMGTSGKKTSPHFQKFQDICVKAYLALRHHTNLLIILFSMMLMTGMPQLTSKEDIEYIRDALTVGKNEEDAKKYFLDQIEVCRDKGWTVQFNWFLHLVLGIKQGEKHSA", "assay": "PI3K isoforms biochemical assay (HTRF), PI3K-γ", "conditions": "read-out: PI3Kγ IC50", "procedure": "as §1"}, "[2]": {"tested_on": "TRF1 protein in p53−/− MEFs nuclear extracts", "assay": "Western blot of nuclear TRF1 in p53−/− MEFs", "format": "cell-based, mouse", "conditions": "10 μM", "procedure": "Blots were incubated with the primary antibodies anti-TRF1 1:500 (home-made monoclonal Rat, CNIO; TRF-78, ABCAM, ab10579) and with anti-SMC1 1:2000 (Bethyl Laboratories #A300-055A) as loading control. For nuclear protein preparation, the Nuclear/Cytosol Fractionation Kit (K266-100, BioVision) was used according to the manufactures protocol."}, "[3]": {"tested_on": "TRF1 foci in p53−/− mouse embryo fibroblasts (MEF)", "assay": "TRF1 foci immunofluorescence in p53−/− MEFs", "format": "cell-based", "conditions": "10 μM, 24 h", "procedure": "We then checked whether PI3Kα/AKT inhibition also leads to decreased TRF1 foci in an additional cell type to CHA-9.3 cells. Thus, we used p53 ^−/− mouse embryo fibroblasts (MEF). We treated these MEFs either with the AKT inhibitor MK-2206 or with ETP-47037 at 10 μM concentration for 24 h and analyzed TRF1 foci by immunofluorescence.\nTRF1 immunofluorescence of TRF1 was performed in lung tumor-derived cell line (CHA9.3) and in MEFs[39]. A rat monoclonal antibody against mouse TRF1 developed by the Monoclonal antibody unit at CNIO was used to detect endogenous TRF1 (1:500). GFP-TRF1 fluorescence was directly measured in cells fixed in paraformaldehyde. For quantification of TRF1 foci intensity, pictures of fixed cells were automatically acquired from each well by the Opera HCS system (Perkin Elmer). Sixty images of random fields per well, with a 40× magnification lens, were taken under non-saturating conditions. At least 1 × 10^3 cells were analyzed for each well. Briefly, images were segmented using the DAPI staining to generate masks matching cell nuclei from which-TRF1 foci were analyzed."}, "[4]": {"tested_on": "aggressive lung cancer in mice", "set-up": "method as in PMID 25971796", "conditions": "mice with aggressive lung cancer; cited from earlier work"}},
  "data": [
    {"smiles": "CS(=O)(=O)N1CCN(Cc2cc3c(N4CCOCC4)nc(-c4cnc(N)nc4)cn3n2)CC1", "note": "[ETP-47037]", "values": [
      {"measurement": "TRF1 mRNA levels", "setting": "[1]", "result": "None of the inhibitors significantly affected"},
      {"measurement": "IC50", "setting": "PI3K-β (p110β/p85α)", "result": 49.2, "unit": "nM"},
      {"measurement": "IC50", "setting": "PI3K-γ (p110γ)", "result": 49.1, "unit": "nM"},
      {"measurement": "Total nuclear TRF1 levels compared to DMSO", "setting": "[2]", "result": "decreased"},
      {"measurement": "Reduction in TRF1 foci intensity", "setting": "[3]", "result": 34, "unit": "%"},
      {"measurement": "Telomere TRF1 foci in vivo", "setting": "[4]", "result": "significantly decreased"},
      {"measurement": "Telomeric DNA damage in vivo", "setting": "[4]", "result": "induced telomeric DNA damage"},
      {"measurement": "Tumor growth as compared to non-treated mice", "setting": "[4]", "result": "blocked tumor growth"}
    ]}
  ]
}
